Test results published in patent US8372831B2, “Isoxazoline linked pyrrolo[2,1-c][1,4]benzodiazepine hybrids as potential anticancer agents and the process for preparation thereof” (Council of Scientific & Industrial Research, priority 2008, dated 2013).
Read-outs that look alike come from different tables or passages of the source.

Assays:
[1] = tested on: NCI-H460; test: NCI SRB cytotoxicity, NCI-H460 (non-small cell lung); assay type: cell-based, human; details: NCI-H460, Non-smallcell lung; 48 hrs exposure
Method: (§1) Biological Activity: The in vitro biological activity studies were carried out at the National Cancer Institute, Maryland, USA.
(§2) The C8-linked isoxazoline-PBD hybrids have been tested against sixty human tumour cell lines derived from nine cancer types (leukemia, non-small cell lung cancer, colon cancer, CNS cancer, melanoma, ovarian cancer, renal cancer, prostate cancer and breast cancer) as per NCI protocol. For each compound, dose response curves for individual cell lines have been measured at a minimum of five concentrations at 10 fold dilutions. A protocol of 48 hrs continuous drug exposure has been used, and a sulforhodamine B (SRB) protein assay was used to estimate cell viability or growth. The concentration for 50% cell growth inhibition (GI50), total cell growth inhibition (TGI, 0% growth) and 50% cell death (LC50, […]) compared with the control has been calculated (FIG. 2).
(§3) Compound 5b and 9b have been evaluated for in vitro cytotoxicity in sixty cell lines from nine human cancer types of lung (Hop-62, NCI-H226, NCI-H522), leukemia (K-562, SR), colon (HCT-116, HCT-15, HCC-2998), CNS(SF-539), melanoma (SK-MEL-5, UACC-62, M14), ovarian (IGROV1), renal (A498), prostate (PC3) breast (BT-549, MDA-MB-435, HS578T) origin. The results are expressed as percent of cell growth determined relative to that of untreated control cells (Table 1).

[2] = tested on: MDA-MB-435; test: NCI SRB cytotoxicity, MDA-MB-435 (breast); assay type: cell-based, human
Method: as §1, §2, §3

[3] = tested on: SK-MEL-28; test: NCI SRB cytotoxicity, SK-MEL-28 (melanoma); assay type: cell-based, human; details: 48 hrs exposure
Method: as §1, §2, §3

[4] = tested on: MCF7; test: NCI SRB cytotoxicity, MCF7 (breast); assay type: cell-based, human; details: 48 hrs exposure
Method: as §1, §2, §3

[5] = tested on: MDA-MB-; test: NCI SRB cytotoxicity, MDA-MB- (breast); assay type: cell-based, human; details: 48 hrs exposure
Method: as §1, §2, §3

[6] = tested on: OVCAR-4; test: NCI SRB cytotoxicity, OVCAR-4 (ovarian); assay type: cell-based, human; details: 48 hrs exposure
Method: as §1, §2, §3

[7] = tested on: Renal; test: NCI SRB cytotoxicity, renal cancer panel; assay type: cell-based, human; details: average of six to eight different cancer cell lines; for Log10 LC50: 50% lethality
Method: as §1, §2, §3

[8] = tested on: Melanoma; test: NCI SRB cytotoxicity, melanoma panel; assay type: cell-based, human; details: average of six to eight different cancer cell lines; for Log10 LC50: 50% lethality
Method: as §1, §2, §3

[9] = tested on: SN12C; test: NCI SRB cytotoxicity, SN12C (renal); assay type: cell-based, human; details: 48 hrs exposure
Method: as §1, §2, §3

[10] = tested on: U251; test: NCI SRB cytotoxicity, U251 (CNS); assay type: cell-based, human; details: 48 hrs exposure
Method: as §1, §2, §3

[11] = tested on: HT29; test: NCI SRB cytotoxicity, HT29 (colon); assay type: cell-based, human; details: 48 hrs exposure
Method: as §1, §2, §3

[12] = tested on: T-47D; test: NCI SRB cytotoxicity, T-47D (breast); assay type: cell-based, human; details: 48 hrs exposure
Method: as §1, §2, §3

[13] = tested on: HS 578T; test: NCI SRB cytotoxicity, HS 578T (breast); assay type: cell-based, human
Method: as §1, §2, §3

[14] = tested on: MOLT-4; test: NCI SRB cytotoxicity, MOLT-4 (leukemia); assay type: cell-based, human; details: 48 hrs exposure
Method: as §1, §2, §3

[15] = tested on: NCI-H23; test: NCI SRB cytotoxicity, NCI-H23 (non-small cell lung); assay type: cell-based, human; details: NCI-H23, Non-smallcell lung; 48 hrs exposure
Method: as §1, §2, §3

[16] = tested on: LOX IMVI; test: NCI SRB cytotoxicity, LOX IMVI (melanoma); assay type: cell-based, human; details: 48 hrs exposure
Method: as §1, §2, §3

[17] = tested on: 786-0; test: NCI SRB cytotoxicity, 786-0 (renal); assay type: cell-based, human; details: 48 hrs exposure
Method: as §1, §2, §3

[18] = tested on: KM12; test: NCI SRB cytotoxicity, KM12 (colon); assay type: cell-based, human; details: 48 hrs exposure
Method: as §1, §2, §3

[19] = tested on: CCRF-CEM; test: NCI SRB cytotoxicity, CCRF-CEM (leukemia); assay type: cell-based, human; details: 48 hrs exposure
Method: as §1, §2, §3

[20] = tested on: IGROV1; test: NCI SRB cytotoxicity, IGROV1 (ovarian); assay type: cell-based, human
Method: as §1, §2, §3

[21] = tested on: OVCAR-5; test: NCI SRB cytotoxicity, OVCAR-5 (ovarian); assay type: cell-based, human; details: 48 hrs exposure
Method: as §1, §2, §3

[22] = tested on: A549/ATCC; test: NCI SRB cytotoxicity, A549/ATCC (non-small cell lung); assay type: cell-based, human; details: Non-smallcell lung, 48 hrs exposure
Method: as §1, §2, §3

[23] = tested on: HOP-62; test: NCI SRB cytotoxicity, HOP-62 (non-small cell lung); assay type: cell-based, human
Method: as §1, §2, §3

[24] = tested on: sixty human tumour cell lines; test: NCI in vitro cytotoxicity, sixty human tumour cell lines (SRB); assay type: cell-based; details: for GI50: bound over all cell lines; for Log10 GI50 mean graph midpoint (MG_MID) / Log10 TGI mean graph midpoint (MG_MID): human tumour cell lines; for Log10 TGI mean graph midpoint (MG_MID): total cell growth inhibition
Method: as §1, §2, §3

[25] = tested on: TK-10; test: NCI SRB cytotoxicity, TK-10 (renal); assay type: cell-based, human; details: 48 hrs exposure
Method: as §1, §2, §3

[26] = tested on: SK-MEL-2; test: NCI SRB cytotoxicity, SK-MEL-2 (melanoma); assay type: cell-based, human; details: 48 hrs exposure
Method: as §1, §2, §3

[27] = tested on: COLO 205; test: NCI SRB cytotoxicity, COLO 205 (colon); assay type: cell-based, human; details: 48 hrs exposure
Method: as §1, §2, §3

[28] = tested on: duplex-form calf thymus DNA (CT-DNA); test: Thermal denaturation studies with calf thymus DNA; assay type: binding; details: [PBD]:[DNA] molar ratio 1:5, CT-DNA 100 μM, ligand 20 μM, pH 7.00
Method: Compounds have been subjected to thermal denaturation studies with duplex-form calf thymus DNA (CT-DNA) using a modification of a reported procedure. Working solutions in aqueous buffer (10 mM NaH2PO4/Na2HPO4, 1 mM Na2EDTA, pH 7.00+0.01) containing CT-DNA (100 (μm in phosphate) and the PBD (20(μm) have been prepared by addition of concentrated PBD solutions in DMSO to obtain a fixed [PBD]/[DNA] molar ratio of 1:5. The DNA-PBD solutions have been incubated at 37° C. for 0 and 18 hrs prior to analysis. Samples have been monitored at 260 nm using a Beckman DU-800 spectrophotometer fitted with high performance temperature controller, and heated at 1° C. min^−1 in the 40-110° C. range. DNA helix→coil transition temperatures (Tm) have been obtained from the maxima in the d(A260)/d T derivative plots. Drug-induced alterations in DNA melting behavior are given by: ΔTm=Tm(DNA+PBD)−Tm(DNA alone), where the Tm value for the PBD-free CT-DNA is 68.5±0.01.
The DNA-binding for these novel C8-linked isoxazoline-PBD hybrids has been examined by thermal denaturation studies using calf thymus CT-DNA. […] Data for 5a-c, 9b and 9g and DC-81 are included in Table 4 for comparison.

[29] = tested on: Breast; test: NCI SRB cytotoxicity, breast cancer panel; assay type: cell-based, human; details: average of six to eight different cancer cell lines; for Log10 LC50: 50% lethality
Method: as §1, §2, §3

[30] = MDA-MB-435, Breast, 48 hrs exposure
[31] = HS 578T, Breast, 48 hrs exposure
[32] = IGROV1, Ovarian, 48 hrs exposure
[33] = HOP-62, Non-smallcell lung, 48 hrs exposure
[34] = text b111, read-out: GI50 against sixty cell lines in nine cancer cell panels

COc1cc(C2=NOC(c3cc(OC)c(OC)c(OC)c3)C2)ccc1OCCCCOc1cc2c(cc1OC)C(=O)N1CCC[C@H]1C=N2 (stereo partly drawn) [Compound 5b, (11aS)-7-(methyloxy)-8-(4-[(2-(methyloxy)-4-5-[3,4,5-tri(methyloxy)phenyl]-4,5-dihydro-3-isoxazolylphenyl)oxy]butyloxy)-2,3,5,11a-tetrahydro-1H benzo[e]pyrrolo[1,2-a][1,4]diazepin-5-one]
GI50 [1]: 210 nM
GI50 [2, 30]: 170 nM
GI50 ([2]; breast MDA-MB-435): 170 nM
GI50 [3]: 200 nM
GI50 [4]: 200 nM
GI50 [5]: 190 nM
GI50 [6]: 400 nM
Log10 LC50 [7]: −4.94 mol/L
Log10GI50 [7]: −6.58 mol/L
Log10 LC50 [8]: −5.82 mol/L
Log10GI50 [8]: −6.68 mol/L
GI50 [9]: 300 nM
GI50 [10]: 300 nM
GI50 [11]: 360 nM
GI50 [12]: 280 nM
GI50 [13, 31]: 160 nM
GI50 ([13]; breast HS 578T): 160 nM
GI50 [14]: 200 nM
GI50 [15]: 270 nM
GI50 [16]: 220 nM
GI50 [17]: 280 nM
GI50 [18]: 220 nM
GI50 [19]: 160 nM
GI50 [20, 32]: 240 nM
GI50 ([20]; ovarian IGROV1): 240 nM
GI50 [21]: 420 nM
GI50 [22]: 260 nM
GI50 [23, 33]: 270 nM
GI50 ([23]; non-small cell lung cancer HOP-62): 270 nM
GI50 ([24]; read-out: GI50 against sixty cell lines in nine cell panels): < 470 nM
in vitro cytotoxicity (in words) ([24]; human cancer cell lines): significant cytotoxicity
Log10 GI50 mean graph midpoint (MG_MID) [24]: −6.59
Log10 TGI mean graph midpoint (MG_MID) [24]: −6.05
activity of 5b compared with 9b ([24]; in vitro cytotoxicity, comparison of GI50): ten folds higher activity than 9b
GI50 [24, 34]: < 470 nM
GI50 [25]: 280 nM
GI50 [26]: 230 nM
GI50 [27]: 210 nM
ΔTm after incubation at 37° C. for 0 hrs [28]: 4.1 °C
ΔTm after incubation at 37° C. for 18 hrs [28]: 6.2 °C
Log10 LC50 [29]: −4.52 mol/L
Log10GI50 [29]: −6.74 mol/L

COc1ccc(C2CC(c3ccc(OC)c(OC)c3OC)=NO2)cc1OCCCCOc1cc2c(cc1OC)C(=O)N1CCC[C@H]1C=N2 (stereo partly drawn) [Compound 9b, (11aS)-7-(methyloxy)-8-(4-[(2-(methyloxy)-5-3-[2,3,4-tri(methyloxy)phenyl]-4,5-dihydro-5-isoxazolylphenyl)oxy]butyloxy)-2,3,5,11a-tetrahydro-1H-benzo[e]pyrrolo[1,2-a][1,4]diazepin-5-one]
GI50 [1]: 1850 nM
GI50 [2, 30]: 3540 nM
GI50 [3]: 2070 nM
GI50 [4]: 1750 nM
GI50 [5]: 1150 nM
GI50 [6]: 2070 nM
Log10 LC50 [7]: −4.77 mol/L
Log10GI50 [7]: −5.62 mol/L
Log10 LC50 [8]: −5.12 mol/L
Log10GI50 [8]: −5.72 mol/L
GI50 [9]: 1580 nM
GI50 [10]: 1730 nM
GI50 [11]: 2750 nM
GI50 [12]: 1310 nM
GI50 [13, 31]: 1100 nM
GI50 [14]: 1850 nM
GI50 [15]: 1830 nM
GI50 [16]: 1470 nM
GI50 [17]: 1570 nM
GI50 [18]: 1740 nM
GI50 [19]: 1410 nM
GI50 [20, 32]: 1570 nM
GI50 [21]: 3130 nM
GI50 [22]: 2330 nM
GI50 [23, 33]: 1680 nM
Log10 GI50 mean graph midpoint (MG_MID) [24]: −5.73
Log10 TGI mean graph midpoint (MG_MID) [24]: −5.28
GI50 [24, 34]: < 3540 nM
GI50 [25]: 3510 nM
GI50 [26]: 2030 nM
GI50 [27]: 1960 nM
ΔTm after incubation at 37° C. for 0 hrs [28]: 1.2 °C
ΔTm after incubation at 37° C. for 18 hrs [28]: 2.3 °C
Log10 LC50 [29]: −4.34 mol/L
Log10GI50 [29]: −5.74 mol/L
